Laboratory results from paper PMC2762027, “Potencies of Cocaine Methiodide on Major Cocaine Targets in Mice” (PLoS ONE, 2009).
Entries after “also recorded” stand apart in the source; their conditions may differ. Where two headings read alike, the source gives them in different places.

Columns and labels:
mouse NET = mouse NET (Mus musculus, UniProt O55192); assay: Norepinephrine uptake into HeLa cells transiently transfected with mNET; type: cell-based
[1] = target: T1, dopamine uptake by striatal synaptosomes (Mus musculus, UniProt Q61327); assay: Dopamine reuptake into striatal synaptosomes; type: biochemical
T1 construct: C57B6 mice (aged 6–8 weeks) were decapitated and striatum were dissected from both sides of the brain; from tissue; host or cells: striatal synaptosomes of C57B6 mice
T1 sequence (Q61327 whole entry): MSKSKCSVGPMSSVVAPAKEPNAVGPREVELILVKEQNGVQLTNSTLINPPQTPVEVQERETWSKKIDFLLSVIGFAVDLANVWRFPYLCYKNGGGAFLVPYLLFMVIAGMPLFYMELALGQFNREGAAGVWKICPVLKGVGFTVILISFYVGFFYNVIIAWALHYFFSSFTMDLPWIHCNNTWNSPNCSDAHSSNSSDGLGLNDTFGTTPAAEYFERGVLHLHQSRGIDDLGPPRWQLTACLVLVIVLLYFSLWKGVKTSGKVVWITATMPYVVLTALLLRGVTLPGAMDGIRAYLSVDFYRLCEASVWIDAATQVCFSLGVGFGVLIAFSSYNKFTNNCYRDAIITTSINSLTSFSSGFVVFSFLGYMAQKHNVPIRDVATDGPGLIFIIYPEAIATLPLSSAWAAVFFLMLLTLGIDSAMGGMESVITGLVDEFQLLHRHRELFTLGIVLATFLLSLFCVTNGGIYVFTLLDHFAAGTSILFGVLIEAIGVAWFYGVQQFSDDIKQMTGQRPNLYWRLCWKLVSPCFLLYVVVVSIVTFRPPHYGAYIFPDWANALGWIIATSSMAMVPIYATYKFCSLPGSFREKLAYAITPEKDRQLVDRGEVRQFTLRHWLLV
Procedure: All animal work was conducted in adherence to OSU IACUC approved protocols and guidelines for animal welfare. C57B6 mice (aged 6–8 weeks) were decapitated and striatum were dissected from both sides of the brain and stored on ice. The tissues were placed in ice-cold Krebs'-Ringer's solution buffer (KRB) (in mM: 125 NaCl, 1.2 KCl, 1.2 MgSO4, 1.2 CaCl2, 22 NaHCO3, 1 NaH2PO4, and 10 glucose, adjusted to pH 7.4) with an additional 0.32 M sucrose. Tissue samples were homogenized by using a glass homogenizing tube and with a Teflon-coated pestle. The samples were centrifuged for 10 min at 1,000xg. Supernatant was collected and the debris pellet was discarded. Supernatant was centrifuged for 15 min at 16,000x g. […] Amounts of [^3H]-labeled dopamine accumulated were quantitated by liquid-scintillation counting. All experiments were performed in triplicates. Synaptosomes with the highest dose of inhibitor were used as background controls and radioactivity associated with these wells were subtracted from the total scintillation counts of all wells.
The IC50 values were determined by nonlinear regression analyses of experimental data using GraphPad Prism 3.0 (San Diego, CA). IC50 values presented are averages ± standard error of means (SEM) calculated from 3 independent uptake experiments or recordings of 4 different DRG neurons. Statistical analyses for the difference between the IC50 values of the two drugs were performed by Student's paired t-test using SPSS 17.0 (Chicago, IL).

sodium channels = system: sodium channels; set-up: method as in PMID 16406254; settings: cited from earlier work
mouse DAT = mouse DAT (Mus musculus, UniProt Q61327); assay: Dopamine uptake into HeLa cells transiently transfected with mDAT; type: cell-based
mouse DAT, sequence (Q61327 whole entry): as above

mouse SERT = mouse SERT (Mus musculus, UniProt Q60857); assay: Serotonin uptake into HeLa cells transiently transfected with mSERT; type: cell-based
mouse SERT, sequence (Q60857 whole entry): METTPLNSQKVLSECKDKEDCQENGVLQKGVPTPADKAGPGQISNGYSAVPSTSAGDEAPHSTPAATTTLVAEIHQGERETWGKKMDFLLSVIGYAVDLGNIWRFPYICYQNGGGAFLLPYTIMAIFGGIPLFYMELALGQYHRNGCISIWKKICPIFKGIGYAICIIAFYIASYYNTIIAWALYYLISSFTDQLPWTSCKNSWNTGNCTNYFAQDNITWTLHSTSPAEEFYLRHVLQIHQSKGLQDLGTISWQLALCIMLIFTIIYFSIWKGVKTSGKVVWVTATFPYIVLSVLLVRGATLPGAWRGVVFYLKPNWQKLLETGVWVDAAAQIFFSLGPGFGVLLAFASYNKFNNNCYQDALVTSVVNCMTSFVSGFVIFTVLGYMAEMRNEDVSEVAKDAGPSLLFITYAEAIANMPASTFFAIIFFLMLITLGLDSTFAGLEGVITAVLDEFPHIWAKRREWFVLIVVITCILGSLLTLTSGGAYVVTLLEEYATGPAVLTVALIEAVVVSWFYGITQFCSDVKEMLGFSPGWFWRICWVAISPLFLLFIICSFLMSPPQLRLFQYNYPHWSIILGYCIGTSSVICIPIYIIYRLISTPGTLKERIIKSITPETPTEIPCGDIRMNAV

DRG neuron Na+ channels = assay: Whole-cell voltage clamp recording of sodium channel currents in dorsal root ganglion neurons; type: cell-based, mouse; settings: for IC50: isolated mouse DRG neurons, whole-cell patch clamp, held at -70 mV, read-out: IC50, inhibition of DRG neuron Na+ channels
Procedure: Dorsal root ganglion (DRG) neurons (T1–T10) from adult male C57B6 mice (aged 6–8 weeks) were isolated as per Malin et al. Briefly, ganglia were dissected under stereo microscope and washed in Ca^2+/Mg^2+-free Hank's Buffered Salt Solution (HBSS). DRGs were digested enzymatically, first with papain and then collagenase II and dispase II, each for 10 min at 37°C. Digested DRGs were then triturated in culture media (F-12 supplemented with 10% FBS and 5 mg/ml penicillin/streptomycin) by a fire-polished Pasteur pipette until solution becomes cloudy. Isolated DRG neurons were plated on poly-ornithine coated glass cover slips and maintained in a 37°C, 5% CO2 incubator. Individual DRG neurons were recorded after overnight culture.
Plated coverslips were centered in a perfusion chamber filled with extracellular solution (ECS) containing (in mM): 140 NaCl, 5 KCl, 2 CaCl2, 1 MgCl2, 10 glucose, 10 HEPES, pH 7.4. Cocaine and CM were dissolved in ECS and delivered via a pressure-driven perfusion system (SmartSquirt 8, AutoMate Scientific) with the tip positioned so the DRG neuron being recorded was fully within the direct stream of perfusate. Recording pipettes were pulled from micropipette glass (World Precision Instruments, Sarasota FL) to 2–4 MΩ when filled with an intracellular solution containing (in mM): 140 […], 1 CaCl2, 2 MgCl2, 11 EGTA, 10 HEPES, 2 Mg2ATP, pH 7.2). Whole-cell recordings were made using an EPC10 amplifier and the PatchMaster 2.2.0 software (both from HEKA Electronik, Germany). As soon as the whole-cell configuration was established, fast and slow capacitances were cancelled and the holding potential (Vh) was set to -70 mV. A step protocol ([…] from −70 mV to 10 mV with 5 mV increment for each step) was applied to determine the testing voltage (Vt) that generated the maximal inward current in the following experiment. […] Only one cell per cover slip was recorded to avoid possible drug contamination of other cells. […]
A range of drug concentrations, starting from low to high, were tested for each DRG neuron. The sodium channel currents were recorded 30 s before the drug application, during the 30 s drug application, and 30–60 s after drug washout by perfusion with ECS. For each set of tests, current amplitude was measured by subtracting the baseline value from the peak current. […] The currents measured after the drug washout were used to confirm the complete recovery before testing the next drug concentration.
The IC50 values were determined by nonlinear regression analyses of experimental data using GraphPad Prism 3.0 (San Diego, CA). IC50 values presented are averages ± standard error of means (SEM) calculated from 3 independent uptake experiments or recordings of 4 different DRG neurons. […]

mouse NET, sequence (O55192 whole entry): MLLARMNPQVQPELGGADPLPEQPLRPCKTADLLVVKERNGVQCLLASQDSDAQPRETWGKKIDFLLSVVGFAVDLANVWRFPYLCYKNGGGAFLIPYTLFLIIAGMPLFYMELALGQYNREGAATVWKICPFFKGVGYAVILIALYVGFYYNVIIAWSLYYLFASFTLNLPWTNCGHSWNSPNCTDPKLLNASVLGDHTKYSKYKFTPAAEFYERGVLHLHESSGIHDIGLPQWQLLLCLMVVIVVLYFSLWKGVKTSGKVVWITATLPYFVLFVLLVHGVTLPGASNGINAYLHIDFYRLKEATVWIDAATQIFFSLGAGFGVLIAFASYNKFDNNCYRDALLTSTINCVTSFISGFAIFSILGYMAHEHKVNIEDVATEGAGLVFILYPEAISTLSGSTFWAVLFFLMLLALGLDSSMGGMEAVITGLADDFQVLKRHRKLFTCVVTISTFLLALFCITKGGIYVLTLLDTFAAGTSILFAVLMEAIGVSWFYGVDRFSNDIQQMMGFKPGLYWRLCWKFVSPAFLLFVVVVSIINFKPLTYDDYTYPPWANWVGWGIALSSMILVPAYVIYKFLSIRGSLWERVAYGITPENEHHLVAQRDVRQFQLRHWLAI

| SMILES | IC50 (mouse NET) | IC50 [1] | potency for blocking sodium channels (sodium channels) | IC50 (mouse DAT) | IC50 (mouse SERT) | sodium channel IC50 relative to those for the monoamine transporters (DRG neuron Na+ channels; cocaine, DRG Na+ channels vs DAT, NET, SERT) | IC50 (DRG neuron Na+ channels; n = 4 cells, listed as cocaine) | IC50 (DRG neuron Na+ channels; n = 4 cells) | ratio of IC50 values, cocaine methiodide / cocaine, mNET (mouse NET; transfected HeLa cells) | IC50 (mouse NET; transfected HeLa cells, 60 nM [3H] substrate, mean ± SEM, 3 experiments, read-out: IC50, inhibition of norepinephrine uptake by mNET) | ratio of IC50 values, cocaine methiodide / cocaine, striatal synaptosomes ([1]; dopamine uptake, mouse striatal synaptosomes) | IC50 ([1]; mouse striatum synaptosomes, 60 nM [3H]dopamine, 100 µM desipramine, mean ± SEM, 3 experiments, listed as CM, read-out: IC50, inhibition of dopamine uptake by striatal synaptosomes) | IC50 ([1]; mouse striatum synaptosomes, 60 nM [3H]dopamine, 100 µM desipramine, mean ± SEM, 3 experiments, read-out: IC50, inhibition of dopamine uptake by striatal synaptosomes) | ratio of IC50 values, cocaine methiodide / cocaine, mDAT (mouse DAT; transfected HeLa cells) | IC50 (mouse DAT; transfected HeLa cells, 60 nM [3H] substrate, mean ± SEM, 3 experiments, read-out: IC50, inhibition of dopamine uptake by mDAT) | ratio of IC50 values, cocaine methiodide / cocaine, mSERT (mouse SERT; transfected HeLa cells) | IC50 (mouse SERT; transfected HeLa cells, 60 nM [3H] substrate, mean ± SEM, 3 experiments, read-out: IC50, inhibition of serotonin uptake by mSERT) | effect on sodium channel currents (peak inward current) in DRG neurons (DRG neuron Na+ channels; concentrations up to 3 mM, the highest tested, n = 4 cells, p>0.05, listed as CM) |
| --- | --- | --- | --- | --- | --- | --- | --- | --- | --- | --- | --- | --- | --- | --- | --- | --- | --- | --- |
| COC(=O)[C@H]1[C@@H](OC(=O)c2ccccc2)C[C@@H]2CC[C@H]1N2C [Cocaine] | 0.67 ± 0.09 µM | 0.35 ± 0.11 µM | ≥ 50 µM | 0.45 ± 0.11 µM | 0.68 ± 0.39 µM | roughly 100 fold | 85 µM | 84.8 ± 5.9 µM | – | – | – | – | – | – | – | – | – | – |
| COC(=O)[C@H]1[C@@H](OC(=O)c2ccccc2)C[C@@H]2CC[C@H]1[N+]2(C)C.[I-] [Cocaine Methiodide, Cocaine methiodide] | – | – | – | – | – | – | – | – | 31 fold | 20.9 ± 3.1 µM | 33 fold | 11.7 ± 5.1 µM | 11.5 ± 5.1 µM | 184 fold | 83.2 ± 2.1 µM | 123 fold | 84.3 ± 4.8 µM | very little inhibition; also recorded: no observable effect; also recorded: little observable effect; also recorded: does not inhibit |
